Laboratory results taken from PubChem BioAssay AID1259321 (Sanford-Burnham Center for Chemical Genomics, 2017).
Active and inactive are the calls of the source.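 The calls were made as follows: active = half-maximal concentration for changing protein binding to DNA, from the fitted dose curve, below 10 micromolar; inactive = the rest.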

What follows are compounds tested against Nuclear receptor subfamily 1 group D member 1 (Homo sapiens) (UniProt P20393) (assay: modulators of Rev-erb alpha DNA binding, dose response, biochemical, FITC-DNA, fluorescence polarization (AID 1259321)).
Sequence of Nuclear receptor subfamily 1 group D member 1 (Homo sapiens) (P20393 whole entry, looked up): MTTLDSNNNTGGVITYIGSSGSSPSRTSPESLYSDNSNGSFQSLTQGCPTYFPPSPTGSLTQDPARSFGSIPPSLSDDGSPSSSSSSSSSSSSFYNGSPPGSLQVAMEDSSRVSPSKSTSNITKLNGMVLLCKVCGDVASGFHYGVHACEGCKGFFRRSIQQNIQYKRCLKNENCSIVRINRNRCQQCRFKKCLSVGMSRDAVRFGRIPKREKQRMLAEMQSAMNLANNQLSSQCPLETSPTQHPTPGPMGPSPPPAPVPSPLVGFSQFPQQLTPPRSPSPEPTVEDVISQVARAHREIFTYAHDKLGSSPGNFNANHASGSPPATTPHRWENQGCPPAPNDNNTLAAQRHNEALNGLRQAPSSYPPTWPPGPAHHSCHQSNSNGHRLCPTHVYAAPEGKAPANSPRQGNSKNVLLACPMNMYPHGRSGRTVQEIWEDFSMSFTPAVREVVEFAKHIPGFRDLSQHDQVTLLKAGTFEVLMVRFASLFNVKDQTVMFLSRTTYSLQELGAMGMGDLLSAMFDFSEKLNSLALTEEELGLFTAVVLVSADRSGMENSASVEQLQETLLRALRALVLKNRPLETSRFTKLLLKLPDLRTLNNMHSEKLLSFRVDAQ

| SMILES | IC50 |
| --- | --- |
| Fc1ccc(-n2c(-c3cccs3)nc3nc4ccccc4nc32)cc1 | 4.41 µM |
| Cc1cc(C(C)c2ccccc2)c(O)c(CN2CCOCC2)c1C (configuration not stated) | inactive |
| CCOc1ccccc1NC(=O)CSC1=C(C#N)C(c2ccco2)C(C(=O)Nc2nc3ccccc3s2)=C(C)N1 (configuration not stated) | 4.49 µM |
| Nc1ccc2nc3c(=O)n(C4CCCCC4)c(=O)[nH]c3nc2c1 | 6.28 µM |
| Clc1nc2c(-c3ccccc3)nnn2c2ccccc12 | > 40 µM (inactive) |
| COc1ccc(C(=O)NCCNc2nc3cc(C)cc(C)c3cc2C#N)nc1 | inactive |
| Cc1nc(SCC(=O)NC2CCCC2)c2oc3ccccc3c2n1 | 7.45 µM |
| COc1ccc(C(=O)Nc2nc3ccc4nc(C)sc4c3s2)cc1 | 9.47 µM |
| CCCN1C(=O)c2cccc3c(N4CCCCC4)ccc(c23)C1=O | 8.14 µM |
| Nc1c2c(nc3ccccc13)CCN(Cc1ccccc1)C2 | inactive |
| COc1ccccc1-c1nc(SCC(=O)Nc2cc(C)on2)c2c(=O)n(C)c(=O)n(C)c2n1 | 5.36 µM |
| COc1ccccc1N(C)S(=O)(=O)c1ccc(C(=O)Nc2nc(C)c(C(C)=O)s2)cc1 | inactive |
| COc1ccc2cc(C(=O)Nc3ccc(S(N)(=O)=O)cc3)sc(=O)c2c1OC | 3.03 µM |
| COc1ccc(-c2cc(-c3ccc(OC)cc3)c(C#N)c(SC)n2)cc1 | 8.29 µM |
| Cc1c(Cl)cccc1NC(=O)Cn1cc(C(F)(F)F)cc(Cl)c1=O | > 40 µM (inactive) |
| CNc1ccc2c3c(cccc13)C(=O)N(C)C2=O | 4.6 µM |
| CN1/C(=C\C=C2C(=O)NC(=S)NC2=O)C(C)(C)c2ccccc21 | 6.96 µM |
| Cc1ccc2c(c1)c(/C=C/c1cc[n+](C)cc1)c(C)n2C | > 40 µM (inactive) |
| CCCCOc1ccc(C(=O)n2ccc3ccc(-c4ccc5ccn(Cc6ccccc6)c5c4)cc32)cc1 | > 40 µM (inactive) |
| COc1ccc(CNC(=O)CCCn2c(=S)[nH]c3cc4c(cc3c2=O)OCO4)cc1 | 6.11 µM |
| CC(NC(=O)c1ccc(-c2cc(C(F)(F)F)ccc2Cl)o1)c1ccccc1 (configuration not stated) | > 40 µM (inactive) |
| COc1ccc2c(c1)c(/C=C/c1cc[n+](C)cc1)cn2C | inactive |
| O=c1[nH]c(Cc2ccc(F)cc2)nc2scc(-c3ccc(F)cc3)c12 | 9.5 µM |
| CC1CC1C(=O)Nc1nc(-c2cccs2)c(-c2cccs2)s1 (configuration not stated) | 5.22 µM |
| COc1ccccc1CC1(C)C(=O)Nc2ccc(OC(F)(F)F)cc21 (configuration not stated) | > 40 µM (inactive) |
| COc1ccc(-c2cc(-c3ccccc3)nc(SCC(=O)Nc3nccs3)c2C#N)cc1 | > 40 µM (inactive) |

| SMILES | IC50 |
| --- | --- |
| Cc1nc(N2CCC(C)CC2)c2c(C)c(C(=O)Nc3ccc(C)c(F)c3)sc2n1 | > 40 µM (inactive) |
| NS(=O)(=O)c1ccc(CNC(=O)c2cc(-c3cccnc3)nc3ccc(Br)cc23)cc1 | 0.496 µM |
| Cc1c(C2N3CC4(C)CN2CC(C)(C3)C4=O)c2ccccc2n1C (configuration not stated) | inactive |
| CC(C)CCN1C(=O)c2cccc3c(N)ccc(c23)C1=O | 2.83 µM |
| O=C(CSc1ncnc2c1oc1ccccc12)Nc1cccc(Cl)c1 | 4.59 µM |
| Cc1ccc2c(c1C)NC(=O)CC(c1ccccc1O)=N2 | > 40 µM (inactive) |
| COc1ccc(-c2cc(C(F)(F)F)c(C#N)c(SCC(=O)Nc3nc(C)co3)n2)cc1 | 3.59 µM |
| Cc1nc(NC(=O)c2cncc(Br)c2)ccc1Br | inactive |
| O=C(N=c1ccn(-c2nc3ccccc3nc2NS(=O)(=O)c2ccc(Cl)cc2)cc1)c1cccs1 | > 40 µM (inactive) |
| CCOC(=O)c1nn(-c2ccc(Cl)cc2)c2nc(-c3ccc(C)cc3)c(C#N)c(=O)n12 | 2 µM |
| CC(=O)c1cccc(NC(=O)c2csc(-n3nc(C)cc3C(F)(F)F)n2)c1 | 3.61 µM |
| Cc1cc(C)c2nc(SCC(=O)N3CC(=O)Nc4ccccc43)c(C#N)cc2c1 | 7.22 µM |
| O=C(OCCN1C(=O)c2cccc3c(N4CCOCC4)ccc(c23)C1=O)c1ccc(Cl)cc1Cl | > 40 µM (inactive) |
| Cc1n[nH]c(C)c1N1C(=O)c2cccc3c(N4CCCCCC4)ccc(c23)C1=O | 3.61 µM |
| CCn1c(=O)cc(SCC(=O)Nc2ccc(Cl)cc2)c2ccccc21 | 5.59 µM |
| Cc1cc(-c2nnc3sc(-c4ccc(Cl)cc4Cl)nn23)n[nH]1 | > 40 µM (inactive) |
| CC(C)NC(=O)CSc1nc(-c2cccs2)cc(-c2ccccc2)c1C#N | 3.27 µM |
| O=C(CCCC(=O)OCC(=O)c1cccs1)Nc1ccc(Oc2ccccc2)cc1 | inactive |
| COc1nc(-c2ccccc2)ccc1-c1noc(-c2cccs2)n1 | > 40 µM (inactive) |
| CN(C)c1ccc(N=Nc2ccccc2C(=O)OCC(=O)N2CCCC2)cc1 | 0.527 µM |
| COc1ccc2nc(SCC(=O)Nc3ccc(S(=O)(=O)N4CCCC4)cc3)c(C#N)cc2c1 | inactive |
| COC(=O)c1ccc(NC(=O)c2ccc3c(c2)C(=O)N(C)C3=O)cc1 | 4.43 µM |
| CCn1c(SCC(=O)c2c[nH]c3ccccc23)nnc1-c1cccs1 | > 40 µM (inactive) |
| Cc1ccc(-n2c(N)c(C#N)c(-c3ccccc3)c(C#N)c2=O)cc1 | > 40 µM (inactive) |
| CN(C)c1ccc2nc3c(=O)[nH]c(=O)nc-3n(CC(O)C(O)C(O)CO)c2c1 (configuration not stated) | 0.801 µM |
| CCC(=O)c1ccc(OCc2ccc(C(=O)c3ccccc3)cc2)cc1 | 3.02 µM |

| SMILES | IC50 |
| --- | --- |
| O=C(OCCN1C(=O)c2cccc3c(N4CCOCC4)ccc(c23)C1=O)c1ccccc1Cl | 8.24 µM |
| CCOc1ccc(NC(=O)CCSc2ccc3ccccc3n2)cc1 | 5.15 µM |
| CCCNC(=O)Nc1ccc2c(c1)C(=O)N(C)[C@H]1CC[C@H](CC(=O)NCC3CCCCC3)O[C@@H]1CO2 | > 40 µM (inactive) |
| CCNc1ccc2noc3c2c1C(=O)c1ccccc1-3 | > 40 µM (inactive) |
| COc1cccc(-n2c([S-])c(C(=O)Nc3ccc(S(=O)(=O)N4CCOCC4)cc3)[n+]3cc(C(N)=O)ccc23)c1 | > 40 µM (inactive) |
| COc1ccc(-c2nnc(NC(=O)C(C)C)s2)c(OC)c1 | inactive |
| CCN(CC)S(=O)(=O)c1ccc(N2CCCCC2)c(NC(=O)C2CSC3(C)CCC(=O)N23)c1 (configuration not stated) | inactive |
| Cc1ccc(-c2csc3nc[nH]c(=S)c23)cc1C | 2.1 µM |
| CCC[C@H]1[C@@H](N(C)Cc2cccs2)CC[C@@]23CCCN2C(=O)CCC[C@@H]13 | inactive |
| N#Cc1c(N)nc2c3c(sc(=N)c2c1N)NC(=O)CC3c1ccccc1 (configuration not stated) | > 40 µM (inactive) |
| Cc1nc(SCC(=O)NCc2ccccc2)c2oc3ccccc3c2n1 | 4.18 µM |
| Cc1ccc(-n2c(O)c(/C=N/c3ncc(Br)cc3Br)c(=O)[nH]c2=O)cc1 | inactive |
| Cc1c(-c2ccc(F)cc2)nc(N)c(C#N)c1-c1cccs1 | 1.77 µM |
| COc1ccc2nc(SCc3cccnc3)c(C#N)cc2c1 | 2.51 µM |
| COc1ccc(CCNC(=O)CSc2nc(-c3ccc(OC)c(OC)c3)ccc2C#N)cc1 | inactive |
| CN(C)c1nc(-c2cccnc2)nc(-c2ccccc2)c1C#N | inactive |
| COc1ccc(Cn2ccc3ccc(-c4ccc5ccn(C(=O)c6ccc(C)cc6)c5c4)cc32)cc1 | > 40 µM (inactive) |
| CC1CCN(S(=O)(=O)c2ccc3nc(N4CCN(c5ccccc5)CC4)ccc3c2)CC1 | 8.29 µM |
| COc1ccc(OC)c(Nc2nc(-c3ccccc3O)nc3ccccc23)c1 | 9.61 µM |
| CCOC(=O)c1nnn2c1nc(Nc1cccc(C(F)(F)F)c1)c1ccccc12 | 1.86 µM |
| Cc1cc(OC(C)C(=O)NCc2ccccn2)c2c(C)c(Cc3ccccc3)c(=O)oc2c1 (configuration not stated) | 2.52 µM |
| Cc1nc(-c2ccccc2)nc2[nH]c(-c3ccccc3)cc(=O)c12 | inactive |
| Cc1ccc(Oc2nccc(-c3ccc(Cl)cc3)n2)cc1 | 7.31 µM |
| C=CCNc1nc(NCc2ccc(NC(C)=O)cc2)c2sc(-c3ccccc3)cc2n1 | 5.43 µM |
| CCN(CC)c1ccc(/C=C(/C#N)c2nc3ccccc3[nH]2)c(OC(C)C)c1 | 3.45 µM |
| COCCCNc1nc2c(-c3ccc(C)cc3)nnn2c2ccccc12 | 5.07 µM |

| SMILES | IC50 |
| --- | --- |
| COc1ccc2cc(C(=O)COC(=O)COc3ccc4c(C)cc(=O)oc4c3)ccc2c1 | 4.26 µM |
| C=CCn1c(=NC(=O)c2ccco2)sc2cc(C(=O)OC)ccc21 | inactive |
| O=C(Nc1ccccc1C(F)(F)F)OCCN1C(=O)CCC12CCC(c1ccccc1)CC2 (configuration not stated) | 7.99 µM |
| Cc1nc2cc(NC(=O)CSc3nc4c(C)cccc4cc3C#N)ccc2s1 | 5.93 µM |
| COCCn1c(=NC(=O)c2nc3ccccc3s2)sc2cc(S(C)(=O)=O)ccc21 | 4.6 µM |
| COc1ccc(Cc2nc3ccccc3n2CC(=O)N/N=C/c2ccc(C)cc2O)cc1OC | 5.85 µM |
| COc1ccc(C(=O)COC(=O)c2cc(=O)[nH]c3ccccc23)c(OC)c1 | inactive |
| Nc1ccc2c3c(cccc13)C(=O)N(c1ccccc1)C2=O | inactive |
| COc1ccccc1N=Nc1nc(-c2ccccc2)c(-c2ccccc2)[nH]1 | 0.465 µM |
| COC(=O)Cn1c(C)c(/C=C/c2cc[n+](C)cc2)c2ccccc21 | 2.25 µM |
| CCOC(=O)CSc1nc2cc(OCC)ccc2cc1C#N | 6.06 µM |
| Oc1ccc(Br)cc1C1Nc2ccccc2S1 (configuration not stated) | 6.22 µM |
| COc1ccc(NC(=O)c2sc3nc(N4CCCC4)c4c(c3c2N)CC(C)(C)OC4)c(OC)c1 | > 40 µM (inactive) |
| O=C(NCc1cc(C(F)(F)F)ccc1Cl)c1cccc2c1C(=O)c1ccc(Cl)cc1S2(=O)=O | 4.22 µM |
| O=C(CSc1nc2ccccc2c(=O)n1-c1ccc(F)cc1)Nc1cc(S(=O)(=O)N2CCOCC2)ccc1Cl | > 40 µM (inactive) |
| CCCOc1ccc(C(=O)Nc2nc(C)c(Cc3ccc4c(c3)OCO4)s2)cc1 | inactive |
| N#Cc1c(N)nc2c3c(sc(=N)c2c1N)NC(=O)CC3c1c(F)cccc1Cl (configuration not stated) | 0.78 µM |
| Cn1c(SCC(=O)c2ccc3c(c2)Cc2ccccc2-3)nnc1-c1ccccc1 | 2.24 µM |
| O=C1c2cccc3c(N4CCCCC4)ccc(c23)C(=O)N1c1ccccc1O | 5.32 µM |
| COc1cc(NC(=O)CCn2c(=S)[nH]c3ccccc3c2=O)cc(OC)c1OC | inactive |
| O=C(NCc1ccc2c(c1)OCO2)C1CCC(CNS(=O)(=O)c2cccc3nsnc23)CC1 (configuration not stated) | > 40 µM (inactive) |
| CC1(C)Cc2nc3sc4c(SCC(=O)NC(c5ccccc5)c5ccccc5)ncnc4c3cc2CO1 | > 40 µM (inactive) |
| COc1cccc(-n2nnnc2SCC(=O)Nc2ccc3c(c2)OCCO3)c1 | inactive |
| Cc1cc(-c2cccc([N+](=O)[O-])c2)nc2ccc3ccccc3c12 | 3 µM |
